Reference: PubChem BioAssay (NCI)
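96-well plates; 48 h exposure; 5 concentrations. Endpoints by linear interpolation between flanking doses. Not reached: highest tested concentration assigned. TGI is the concentration that stops growth completely.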

Columns and labels:
Test in all cases: NCI anticancer screen, dose series, 48 h
786-0 renal = test system: 786-0 renal
A498 renal = test system: A498 renal
A549 NSCLC = test system: A549 NSCLC
ACHN renal = test system: ACHN renal
BT-549 breast = test system: BT-549 breast
COLO 205 colon = test system: COLO 205 colon
DU-145 prostate = test system: DU-145 prostate
EKVX NSCLC = test system: EKVX NSCLC
HCC-2998 colon = test system: HCC-2998 colon
HCT-116 colon = test system: HCT-116 colon
HCT-15 colon = test system: HCT-15 colon
HL-60(TB) leukemia = test system: HL-60(TB) leukemia
HOP-62 NSCLC = test system: HOP-62 NSCLC
HOP-92 NSCLC = test system: HOP-92 NSCLC
HS 578T breast = test system: HS 578T breast
HT29 colon = test system: HT29 colon
IGROV1 ovarian = test system: IGROV1 ovarian
K-562 leukemia = test system: K-562 leukemia
KM12 colon = test system: KM12 colon
LOX IMVI melanoma = test system: LOX IMVI melanoma
M14 melanoma = test system: M14 melanoma
MALME-3M melanoma = test system: MALME-3M melanoma
MCF7 breast = test system: MCF7 breast
MDA-MB-231 breast = test system: MDA-MB-231 breast
MDA-MB-435 = test system: MDA-MB-435
MDA-N = test system: MDA-N
NCI-H226 lung = test system: NCI-H226 lung
NCI-H23 lung = test system: NCI-H23 lung
NCI-H460 lung = test system: NCI-H460 lung
NCI/ADR-RES ovarian = test system: NCI/ADR-RES ovarian
OVCAR-3 ovarian = test system: OVCAR-3 ovarian
OVCAR-4 ovarian = test system: OVCAR-4 ovarian
OVCAR-5 ovarian = test system: OVCAR-5 ovarian
OVCAR-8 ovarian = test system: OVCAR-8 ovarian
PC-3 prostate = test system: PC-3 prostate
RPMI-8226 leukemia = test system: RPMI-8226 leukemia
SF-268 CNS = test system: SF-268 CNS
SF-295 CNS = test system: SF-295 CNS
SF-539 CNS = test system: SF-539 CNS
SK-MEL-28 melanoma = test system: SK-MEL-28 melanoma
SK-MEL-5 melanoma = test system: SK-MEL-5 melanoma
SN12C renal = test system: SN12C renal
SNB-19 CNS = test system: SNB-19 CNS
SR leukemia = test system: SR leukemia
SW-620 colon = test system: SW-620 colon
TK-10 renal = test system: TK-10 renal
U251 CNS = test system: U251 CNS
UACC-257 melanoma = test system: UACC-257 melanoma
UO-31 renal = test system: UO-31 renal

Question: How did the TGI (786-0 renal) turn out when `O=c1cc(NNc2ccc3ccccc3c2)[nH]c(=S)[nH]1` was run?
Answer: The TGI was 39.6 µM.

Question: What about the TGI (A498 renal) of the same compound?
Answer: The TGI was greater than 100 µM.

Question: And the TGI (A549 NSCLC)?
Answer: Its TGI is greater than 100 µM.

Question: What about the TGI (ACHN renal) of the same compound?
Answer: The TGI was greater than 100 µM.

Question: And the TGI (BT-549 breast)?
Answer: Its TGI is greater than 100 µM.

Question: What about the TGI (COLO 205 colon) of the same compound?
Answer: The TGI was 46 µM.

Question: What about the TGI (DU-145 prostate) of the same compound?
Answer: Its TGI is greater than 100 µM.

Question: And the TGI (EKVX NSCLC)?
Answer: The TGI was greater than 100 µM.

Question: And the TGI (HCC-2998 colon)?
Answer: The TGI was greater than 100 µM.

Question: And the TGI (HCT-116 colon)?
Answer: Its TGI is greater than 100 µM.

Question: And the TGI (HCT-15 colon)?
Answer: The TGI was 34.1 µM.

Question: What about the TGI (HL-60(TB) leukemia) of the same compound?
Answer: Its TGI is 69.5 µM.

Question: What about the TGI (HOP-62 NSCLC) of the same compound?
Answer: The TGI was 98.3 µM.

Question: What about the TGI (HOP-92 NSCLC) of the same compound?
Answer: The TGI was 62.1 µM.

Question: What about the TGI (HS 578T breast) of the same compound?
Answer: Its TGI is greater than 100 µM.

Question: And the TGI (HT29 colon)?
Answer: Its TGI is 30 µM.

Question: And the TGI (IGROV1 ovarian)?
Answer: Its TGI is greater than 100 µM.

Question: What about the TGI (K-562 leukemia) of the same compound?
Answer: The TGI was 41.1 µM.

Question: What about the TGI (KM12 colon) of the same compound?
Answer: Its TGI is 38.3 µM.

Question: What about the TGI (LOX IMVI melanoma) of the same compound?
Answer: The TGI was 26 µM.

Question: And the TGI (M14 melanoma)?
Answer: The TGI was greater than 100 µM.

Question: What about the TGI (MALME-3M melanoma) of the same compound?
Answer: The TGI was greater than 100 µM.

Question: And the TGI (MCF7 breast)?
Answer: Its TGI is 66.6 µM.

Question: What about the TGI (MDA-MB-231 breast) of the same compound?
Answer: The TGI was greater than 100 µM.

Question: And the TGI (MDA-MB-435)?
Answer: The TGI was greater than 100 µM.

Question: And the TGI (MDA-N)?
Answer: Its TGI is greater than 100 µM.

Question: And the TGI (NCI-H226 lung)?
Answer: Its TGI is greater than 100 µM.

Question: And the TGI (NCI-H23 lung)?
Answer: The TGI was greater than 100 µM.

Question: What about the TGI (NCI-H460 lung) of the same compound?
Answer: Its TGI is greater than 100 µM.

Question: And the TGI (NCI/ADR-RES ovarian)?
Answer: The TGI was greater than 100 µM.

Question: What about the TGI (OVCAR-3 ovarian) of the same compound?
Answer: Its TGI is 34.1 µM.

Question: What about the TGI (OVCAR-4 ovarian) of the same compound?
Answer: The TGI was greater than 100 µM.

Question: What about the TGI (OVCAR-5 ovarian) of the same compound?
Answer: The TGI was greater than 100 µM.

Question: What about the TGI (OVCAR-8 ovarian) of the same compound?
Answer: The TGI was greater than 100 µM.

Question: What about the TGI (PC-3 prostate) of the same compound?
Answer: Its TGI is 46.4 µM.

Question: And the TGI (RPMI-8226 leukemia)?
Answer: Its TGI is greater than 100 µM.

Question: What about the TGI (SF-268 CNS) of the same compound?
Answer: Its TGI is 80 µM.

Question: What about the TGI (SF-295 CNS) of the same compound?
Answer: Its TGI is greater than 100 µM.

Question: What about the TGI (SF-539 CNS) of the same compound?
Answer: Its TGI is 82.1 µM.

Question: And the TGI (SK-MEL-28 melanoma)?
Answer: Its TGI is greater than 100 µM.

Question: And the TGI (SK-MEL-5 melanoma)?
Answer: Its TGI is greater than 100 µM.

Question: What about the TGI (SN12C renal) of the same compound?
Answer: The TGI was greater than 100 µM.

Question: What about the TGI (SNB-19 CNS) of the same compound?
Answer: The TGI was greater than 100 µM.

Question: What about the TGI (SR leukemia) of the same compound?
Answer: Its TGI is greater than 100 µM.

Question: What about the TGI (SW-620 colon) of the same compound?
Answer: The TGI was 36.8 µM.

Question: What about the TGI (TK-10 renal) of the same compound?
Answer: The TGI was greater than 100 µM.

Question: What about the TGI (U251 CNS) of the same compound?
Answer: The TGI was greater than 100 µM.

Question: And the TGI (UACC-257 melanoma)?
Answer: Its TGI is greater than 100 µM.

Question: And the TGI (UO-31 renal)?
Answer: Its TGI is greater than 100 µM.
